Source: patent publication US20170008888A1 (KYORIN PHARMACEUTICAL CO., LTD., priority 2014, published 2017)
Read-outs that look alike come from different tables or passages of the source.

Experiments:
human PBMCs = test: Human PBMC TNF-α response to endotoxin (ELISA); type: cell-based; settings: 0.1 μg/ml LPS 16 h, read-out: EC50 for the inhibition of the human PBMC TNF-α response to endotoxin, ave. ± S.D.
Procedure, shortened: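 PBMCs at 2e6 cells/ml in RPMI 1640 with 10% charcoal-dextran-treated FBS were pre-treated 1 h at 37 °C with compound (4-point 1:5 dilution from 10 μM). Stimulation with 0.1 μg/ml E. coli 0111:B4 LPS for 16 h; TNF-α measured by ELISA (A450) in 25-fold diluted supernatant.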

ERK5 = molecular target: T1, ERK5 (Homo sapiens, UniProt Q13164); test: Probe-based (AX9989 acyl phosphate ATP probe) kinase profiling in Jurkat lysate: ERK5; type: binding; settings: for IC50: Jurkat lysate
T1 construct: screened for activity against several kinases in Jurkat cells; endogenous in cells; host or cells: Jurkat cell lysate
Procedure, shortened: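 Gel-filtered Jurkat lysate (5 mg/ml, 20 mM MnCl2) preincubated 15 min at room temperature with compound, then labelled with 5 μM AX9989 acyl phosphate ATP probe. Probe-labelled ERK5 active-site peptides quantified by LC/MS after trypsin digestion and streptavidin capture; IC50 calculated from percent inhibition at the screening concentration.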

ACK = molecular target: T2, ACK (Homo sapiens, UniProt Q07912); test: Probe-based (AX9989) kinase profiling in Jurkat lysate: ACK; type: binding
T2 construct: screened for activity against several kinases in Jurkat cells; endogenous in cells; host or cells: Jurkat cell lysate
Procedure, shortened: (§1)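 Jurkat lysate, HEPES pH 7.5 buffer + 20 mM MnCl2; cpd 15 min RT; AX9989 ATP probe 5 μM final, RT. Trypsin digest, streptavidin capture, LC/MS; % inhibition vs vehicle from labeled-peptide signal.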

TAO2 = molecular target: T3, TAO2 (Homo sapiens, UniProt Q9UL54); test: Probe-based (AX9989) kinase profiling in Jurkat lysate: TAO2; type: binding
T3 construct: screened for activity against several kinases in Jurkat cells; endogenous in cells; host or cells: Jurkat cell lysate
T3 sequence (Q9UL54 1-1235): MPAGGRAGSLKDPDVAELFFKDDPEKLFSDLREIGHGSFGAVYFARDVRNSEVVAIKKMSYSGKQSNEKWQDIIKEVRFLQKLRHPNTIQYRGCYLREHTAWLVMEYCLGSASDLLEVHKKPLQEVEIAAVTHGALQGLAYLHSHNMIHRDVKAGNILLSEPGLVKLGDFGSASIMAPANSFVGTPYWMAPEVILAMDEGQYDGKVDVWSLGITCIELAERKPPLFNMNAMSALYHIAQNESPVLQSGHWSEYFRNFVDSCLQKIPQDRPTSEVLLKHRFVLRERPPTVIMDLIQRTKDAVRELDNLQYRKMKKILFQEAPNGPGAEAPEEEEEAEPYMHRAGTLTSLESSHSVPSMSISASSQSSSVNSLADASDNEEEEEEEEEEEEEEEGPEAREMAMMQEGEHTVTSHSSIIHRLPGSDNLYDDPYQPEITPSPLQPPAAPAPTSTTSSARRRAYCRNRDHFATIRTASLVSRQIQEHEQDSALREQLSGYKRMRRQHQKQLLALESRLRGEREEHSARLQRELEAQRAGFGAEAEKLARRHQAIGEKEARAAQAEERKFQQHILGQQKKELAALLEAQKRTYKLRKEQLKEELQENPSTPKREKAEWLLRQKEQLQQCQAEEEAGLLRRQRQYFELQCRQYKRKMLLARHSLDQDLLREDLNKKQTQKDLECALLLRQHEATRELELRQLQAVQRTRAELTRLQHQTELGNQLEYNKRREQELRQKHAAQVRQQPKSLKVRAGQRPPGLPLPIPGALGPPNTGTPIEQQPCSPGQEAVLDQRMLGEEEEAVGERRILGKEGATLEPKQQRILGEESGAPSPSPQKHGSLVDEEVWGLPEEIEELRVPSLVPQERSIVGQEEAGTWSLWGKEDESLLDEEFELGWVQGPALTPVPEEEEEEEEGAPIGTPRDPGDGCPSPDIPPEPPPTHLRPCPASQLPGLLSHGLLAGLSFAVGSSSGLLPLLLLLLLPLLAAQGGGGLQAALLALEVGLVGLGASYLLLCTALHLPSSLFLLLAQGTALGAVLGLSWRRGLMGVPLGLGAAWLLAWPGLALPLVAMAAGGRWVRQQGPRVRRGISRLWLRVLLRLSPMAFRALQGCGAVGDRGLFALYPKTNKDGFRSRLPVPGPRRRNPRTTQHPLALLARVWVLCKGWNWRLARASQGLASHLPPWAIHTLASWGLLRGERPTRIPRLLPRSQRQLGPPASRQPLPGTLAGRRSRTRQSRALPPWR
Procedure, shortened: as §1

AurA = molecular target: T4, AurA (Homo sapiens, UniProt O14965); test: Probe-based (AX9989) kinase profiling in Jurkat lysate: AurA; type: binding
T4 construct: screened for activity against several kinases in Jurkat cells; endogenous in cells; host or cells: Jurkat cell lysate
T4 sequence (O14965 1-403): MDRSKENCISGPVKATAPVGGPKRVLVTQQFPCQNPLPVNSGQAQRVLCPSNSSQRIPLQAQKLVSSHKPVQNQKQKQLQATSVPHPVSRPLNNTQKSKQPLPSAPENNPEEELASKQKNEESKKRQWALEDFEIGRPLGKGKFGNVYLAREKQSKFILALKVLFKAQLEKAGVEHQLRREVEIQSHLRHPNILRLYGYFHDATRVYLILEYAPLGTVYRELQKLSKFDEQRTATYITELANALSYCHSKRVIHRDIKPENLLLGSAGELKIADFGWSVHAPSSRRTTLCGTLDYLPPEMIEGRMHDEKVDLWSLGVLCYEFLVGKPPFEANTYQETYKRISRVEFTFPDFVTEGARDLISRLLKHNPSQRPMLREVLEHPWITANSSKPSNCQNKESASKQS
Procedure, shortened: as §1

ABL or ARG = test: Probe-based (AX9989) kinase profiling in Jurkat lysate: ABL or ARG; type: binding; settings: for Kinase inhibition % at indicated screening concentration: ABL or ARG: screening concentration 1.0 μM; for ABL or ARG Inhibition % at indicated screening concentration: screening concentration 1 μM
Procedure, shortened: as §1

AurB or AurC = test: Probe-based (AX9989) kinase profiling in Jurkat lysate: AurB or AurC; type: binding; settings: for Kinase inhibition % at indicated screening concentration: AurB or AurC: screening concentration 1.0 μM; for AurB or AurC Inhibition % at indicated screening concentration: screening concentration 1 μM
Procedure, shortened: as §1

AMPKa1 or AMPKa2 = test: Probe-based (AX9989) kinase profiling in Jurkat lysate: AMPKa1 or AMPKa2; type: binding; settings: for Kinase inhibition % at indicated screening concentration: AMPKa1 or AMPKa2: screening concentration 1.0 μM; for AMPKa1 or AMPKa2 Inhibition % at indicated screening concentration: screening concentration 1 μM
Procedure, shortened: as §1

JAK1 = molecular target: T5, JAK1 (Homo sapiens, UniProt P23458); test: Probe-based (AX9989) kinase profiling in Jurkat lysate: JAK1; type: binding
T5 construct: screened for activity against several kinases in Jurkat cells; endogenous in cells; host or cells: Jurkat cell lysate
Procedure, shortened: as §1

[1] = calculated from percent inhibition of AX9989 labeling and the screening concentration
[2] = screening concentration 1.0 μM, read-out: Kinase inhibition % at indicated screening concentration: ERK5
[3] = screening concentration 1.0 μM, read-out: Kinase inhibition % at indicated screening concentration: ACK
[4] = screening concentration 1.0 μM, read-out: Kinase inhibition % at indicated screening concentration: TAO2
[5] = screening concentration 1.0 μM, read-out: Kinase inhibition % at indicated screening concentration: AurA
[6] = screening concentration 1.0 μM, read-out: Kinase inhibition % at indicated screening concentration: JAK1
[7] = calculated from percent inhibition and screening concentration, AX9989 probe
[8] = screening concentration 1 μM, read-out: ERK5 Inhibition % at indicated screening concentration
[9] = screening concentration 1 μM, read-out: ACK Inhibition % at indicated screening concentration
[10] = screening concentration 1 μM, read-out: TAO2 Inhibition % at indicated screening concentration
[11] = screening concentration 1 μM, read-out: AurA Inhibition % at indicated screening concentration
[12] = screening concentration 1 μM, read-out: JAK1 Inhibition % at indicated screening concentration

T1 sequence (Q13164 whole entry): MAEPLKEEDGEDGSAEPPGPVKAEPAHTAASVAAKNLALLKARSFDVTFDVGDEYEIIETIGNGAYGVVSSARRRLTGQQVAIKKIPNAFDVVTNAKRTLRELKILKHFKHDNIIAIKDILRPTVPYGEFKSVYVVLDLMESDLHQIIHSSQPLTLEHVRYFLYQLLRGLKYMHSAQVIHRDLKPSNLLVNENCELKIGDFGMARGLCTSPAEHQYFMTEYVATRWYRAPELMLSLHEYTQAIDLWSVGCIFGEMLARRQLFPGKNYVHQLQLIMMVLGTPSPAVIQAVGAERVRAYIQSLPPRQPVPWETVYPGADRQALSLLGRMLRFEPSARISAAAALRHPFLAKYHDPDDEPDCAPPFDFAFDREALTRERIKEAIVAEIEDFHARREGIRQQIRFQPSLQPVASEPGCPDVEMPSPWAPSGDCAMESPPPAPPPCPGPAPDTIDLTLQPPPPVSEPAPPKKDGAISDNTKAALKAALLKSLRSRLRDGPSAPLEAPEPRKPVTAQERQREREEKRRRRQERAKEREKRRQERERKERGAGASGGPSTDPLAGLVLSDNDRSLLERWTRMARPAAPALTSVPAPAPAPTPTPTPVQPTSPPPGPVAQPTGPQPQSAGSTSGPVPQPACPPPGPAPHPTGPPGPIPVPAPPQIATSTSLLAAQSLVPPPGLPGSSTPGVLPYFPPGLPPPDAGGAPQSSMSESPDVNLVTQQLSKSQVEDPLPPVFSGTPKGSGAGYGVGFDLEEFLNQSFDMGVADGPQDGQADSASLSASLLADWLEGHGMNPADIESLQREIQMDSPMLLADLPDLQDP
T5 sequence (P23458 whole entry): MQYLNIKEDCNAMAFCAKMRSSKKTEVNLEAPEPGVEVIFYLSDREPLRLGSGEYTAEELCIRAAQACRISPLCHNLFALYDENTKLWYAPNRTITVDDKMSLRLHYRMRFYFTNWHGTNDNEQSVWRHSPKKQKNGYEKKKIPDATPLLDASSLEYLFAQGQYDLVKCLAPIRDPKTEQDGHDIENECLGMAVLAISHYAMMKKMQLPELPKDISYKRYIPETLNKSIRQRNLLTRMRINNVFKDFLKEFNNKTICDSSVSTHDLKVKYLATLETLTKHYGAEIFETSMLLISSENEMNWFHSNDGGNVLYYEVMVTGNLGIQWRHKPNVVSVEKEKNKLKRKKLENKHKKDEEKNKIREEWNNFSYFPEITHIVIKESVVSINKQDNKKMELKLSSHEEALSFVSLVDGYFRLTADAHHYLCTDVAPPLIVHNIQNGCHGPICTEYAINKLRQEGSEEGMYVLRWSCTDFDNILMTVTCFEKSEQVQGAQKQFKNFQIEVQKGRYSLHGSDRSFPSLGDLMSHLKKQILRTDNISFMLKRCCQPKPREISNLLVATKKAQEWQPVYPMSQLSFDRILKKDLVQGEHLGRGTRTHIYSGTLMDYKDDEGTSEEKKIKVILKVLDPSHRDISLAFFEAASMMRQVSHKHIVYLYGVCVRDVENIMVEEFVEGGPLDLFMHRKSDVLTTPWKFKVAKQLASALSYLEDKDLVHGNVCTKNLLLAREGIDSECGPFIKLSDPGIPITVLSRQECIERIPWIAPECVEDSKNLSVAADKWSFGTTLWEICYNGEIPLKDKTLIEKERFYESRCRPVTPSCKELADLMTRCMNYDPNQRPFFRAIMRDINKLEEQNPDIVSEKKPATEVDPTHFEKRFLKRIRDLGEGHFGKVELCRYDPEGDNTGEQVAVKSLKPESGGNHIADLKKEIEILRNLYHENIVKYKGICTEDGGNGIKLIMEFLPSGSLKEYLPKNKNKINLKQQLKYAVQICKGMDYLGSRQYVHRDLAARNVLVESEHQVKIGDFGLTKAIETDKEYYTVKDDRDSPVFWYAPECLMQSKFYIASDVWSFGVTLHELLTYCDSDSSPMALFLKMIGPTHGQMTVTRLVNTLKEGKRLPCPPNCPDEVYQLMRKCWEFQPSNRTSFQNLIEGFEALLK
T2 sequence (Q07912 whole entry): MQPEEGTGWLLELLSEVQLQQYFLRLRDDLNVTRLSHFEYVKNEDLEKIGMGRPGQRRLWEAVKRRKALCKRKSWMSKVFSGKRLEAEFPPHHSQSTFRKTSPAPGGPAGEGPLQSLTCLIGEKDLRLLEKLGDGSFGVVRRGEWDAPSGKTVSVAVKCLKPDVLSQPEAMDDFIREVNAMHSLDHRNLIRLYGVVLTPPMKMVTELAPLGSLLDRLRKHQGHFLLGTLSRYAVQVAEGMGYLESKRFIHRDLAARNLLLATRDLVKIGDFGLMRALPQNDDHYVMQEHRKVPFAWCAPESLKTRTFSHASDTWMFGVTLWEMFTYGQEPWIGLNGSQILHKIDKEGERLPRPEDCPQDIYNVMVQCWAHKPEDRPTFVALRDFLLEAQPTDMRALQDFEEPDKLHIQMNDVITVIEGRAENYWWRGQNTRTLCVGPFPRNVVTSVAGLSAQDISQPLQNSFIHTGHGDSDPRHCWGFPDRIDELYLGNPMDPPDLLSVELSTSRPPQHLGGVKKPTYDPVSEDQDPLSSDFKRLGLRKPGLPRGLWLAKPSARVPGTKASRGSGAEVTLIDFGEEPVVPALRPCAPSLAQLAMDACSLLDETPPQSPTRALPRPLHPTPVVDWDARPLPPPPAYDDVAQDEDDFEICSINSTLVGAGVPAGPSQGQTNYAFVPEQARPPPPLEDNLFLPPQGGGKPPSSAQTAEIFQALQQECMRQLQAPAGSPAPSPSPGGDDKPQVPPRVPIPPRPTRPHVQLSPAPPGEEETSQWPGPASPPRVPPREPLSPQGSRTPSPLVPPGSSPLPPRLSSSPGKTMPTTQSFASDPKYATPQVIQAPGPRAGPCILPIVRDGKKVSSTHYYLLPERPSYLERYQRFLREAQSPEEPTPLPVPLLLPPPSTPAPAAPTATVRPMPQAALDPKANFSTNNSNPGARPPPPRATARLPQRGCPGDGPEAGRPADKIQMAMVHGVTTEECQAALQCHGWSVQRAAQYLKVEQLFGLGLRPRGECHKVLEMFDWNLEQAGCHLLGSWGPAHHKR

Compound	EC50 (human PBMCs)	IC50 (ERK5; [1])	inhibition at 1 µM (ERK5; [2])	inhibition at 1 µM (ACK; [3])	inhibition at 1 µM (TAO2; [4])	inhibition at 1 µM (AurA; [5])	Kinase inhibition % at indicated screening concentration: ABL or ARG (ABL or ARG)	Kinase inhibition % at indicated screening concentration: AurB or AurC (AurB or AurC)	Kinase inhibition % at indicated screening concentration: AMPKa1 or AMPKa2 (AMPKa1 or AMPKa2)	inhibition at 1 µM (JAK1; [6])	IC50 (ERK5; [7])	inhibition at 1 µM (ERK5; [8])	inhibition at 1 µM (ACK; [9])	inhibition at 1 µM (TAO2; [10])	inhibition at 1 µM (AurA; [11])	ABL or ARG Inhibition % at indicated screening concentration (ABL or ARG)	AurB or AurC Inhibition % at indicated screening concentration (AurB or AurC)	AMPKa1 or AMPKa2 Inhibition % at indicated screening concentration (AMPKa1 or AMPKa2)	inhibition at 1 µM (JAK1; [12])
CCOc1cc(C(=O)N2CCC(N3CCN(C)CC3)CC2)ccc1Nc1cc2c(cn1)N(C)C(=O)C1CCCCC1N2C (centres unmarked) [Compound 68]	> 10 µM	> 0.5 µM	≤ 35%	≤ 35%	≤ 35%	≤ 35%	E (E is ≦35%)	E (E is ≦35%)	E (E is ≦35%)	≤ 35%									
Cc1cc(CO)ccc1Nc1cc2c(cn1)N(C)C(=O)c1ccccc1N2C [Compound 85, 3-(4-(hydroxymethyl)-2-methylphenylamino)-5,11-dimethyl-5H-benzo[e]pyrido[3,4-b][1,4]diazepin-10(11H)-one]	1.35 µM	0.101 to 0.5 µM	75 to 90%	≤ 35%	≤ 35%	≤ 35%	E (E is ≦35%)	E (E is ≦35%)	E (E is ≦35%)	≤ 35%									
Cc1cc(C#N)ccc1Nc1cc2c(cn1)N(C)C(=O)c1ccccc1N2C [Compound 89]	1.75 µM	0.101 to 0.5 µM	50 to 75%	≤ 35%	≤ 35%	≤ 35%	E (E is ≦35%)	E (E is ≦35%)	E (E is ≦35%)	≤ 35%									
CCOc1cc(C)ccc1Nc1cc2c(cn1)N(C)C(=O)c1ccccc1N2C [Compound 95]	3.73 µM	> 0.5 µM	≤ 35%	≤ 35%	≤ 35%	≤ 35%	E (E is ≦35%)	E (E is ≦35%)	E (E is ≦35%)	≤ 35%									
COc1cc(C)c(Nc2cc3c(cn2)N(C)C(=O)c2ccccc2N3C)cn1 [Compound 116]	4.37 µM	> 0.5 µM	50 to 75%	≤ 35%	≤ 35%	≤ 35%	E (E is ≦35%)	E (E is ≦35%)	E (E is ≦35%)	≤ 35%									
CCOc1cc(C(=O)N2CCC(N3CCCC3)CC2)ccc1Nc1cc2c(cn1)N(C)C(=O)c1scnc1N2C [Compound T6]	0.4 µM										≤ 0.05 µM	> 90%	≤ 35%	≤ 35%	≤ 35%	E (E is ≦35%)	E (E is ≦35%)	E (E is ≦35%)	≤ 35%
CCOc1cc(C(=O)N2CCCNCC2)ccc1Nc1cc2c(cn1)N(C)C(=O)c1scnc1N2C [Compound T7]	0.34 µM										0.05 to 0.1 µM	> 90%	≤ 35%	≤ 35%	≤ 35%	E (E is ≦35%)	E (E is ≦35%)	E (E is ≦35%)	≤ 35%
CCOc1cc(C(=O)N[C@H]2CC[C@H](C#N)CC2)ccc1Nc1cc2c(cn1)N(C)C(=O)c1ccccc1N2C [Compound T59]	0.72 µM										0.101 to 0.5 µM	50 to 75%	≤ 35%	≤ 35%	≤ 35%	E (E is ≦35%)	E (E is ≦35%)	E (E is ≦35%)	≤ 35%
